Results as given in patent US6452037B1, “Multioligonanilinated fullerenes” (priority 2001, dated 2002).

Tests used:
ferricytochrome C = assay: In vitro irradiation-induced superoxide generation (ferricytochrome C reduction, absorbance at 550 nm); settings: 25 μM F10A4S, fluorescence light 27 watts, irradiation time 0, 30, 60, 90 minutes
Description: The solution thus obtained was added to each well of a 24-well plate, and exposed to fluorescence light source (27 watts) for 0-90 min. The distance between the plate cover and the light source was set at 5-6 cm. The extent of reduction of ferricytochrome C to ferrocytochrome C was evaluated by optical measurement. The increase of the absorbance at 550 nm corresponded to the increase of the quantity of ferrocytochrome C.
In a separate experiment, the presence of superoxide radicals in the solution was confirmed by selective removal of superoxide radicals with superoxide dismutase (SOD, 75 or 150 units).

[1] = Water solubility noted for the isolated product; assay type: physicochemical
Description: 200 mg F12A16 and 15.0 mL DMF were added to a dry flask containing a stirring bar and a condenser under N2. To the DMF solution were either sequentially added 1.0 mL DBU, 0.5 mL 1,4-butane sultone, and stirred at 100° C. for 12.0 hours or sequentially added 70 mg sodium hydride −30° C., stirred for 30 minutes, added 0.5 mL 1,4-butane sultone, and stirred at 60° C. for 6.0 hours. It was then quenched with 100 mL dilute HCl-acetone solution to effect precipitation of a solid. The solid was collected after centrifugation, washed twice with acetonitrile, and dissolved in 15 mL DMSO-H2O (1:5) in the presence of 100 mg Na2CO3. The DMSO-H2O solution was slowly added to acetone, resulting in precipitation of the product F12A16S. The product, in blue, was collected after centrifugation, washed with DMF and acetone, and then dried under vacuum at 40° C. to yield 210-230 mg water-soluble F12A16S.
80 mg F10A4 in 20 mL DMSO, and 60 mg sodium hydride were added into a dry flask equipped with a stirring bar and a condenser at ambient temperature under N2. The solution thus obtained was stirred for 30 minutes, followed by addition of 0.2 mL 1,4-butane sultone. The reaction mixture was slowly heated to 70° C. and stirred for 12.0 hours, and was quenched with 100 mL dilute HCl-acetonitrile solution to effect precipitation. […]

[2] = test system: Fibrosarcoma cells (CCRC 60037); assay: In vitro irradiation-induced cytotoxicity, MTT cell viability, fibrosarcoma cells; assay type: cell-based; settings: fluorescence light irradiation time 60 minutes
Description: (§1) Two types of tumor cells were used in this study, and prepared as follows: Fibrosarcoma cells (CCRC 60037) and sarcoma 180 cells (obtained form Biochemical Institute of Chung Shan Medical and Dental College, Taiwan) were maintained and cultured in an α-modified eagle medium (MEM) containing L-glutamine and phenol red. It was supplemented with 10% fetal bovine serum and antibiotics (100 units/mL of penicillin G and 100 μg/mL streptomycin sulfate). The cells were incubated in the dark in 95% humidified air plus 5% CO2, and harvested by treatment with trypsin-EDTA. The harvested cells were suspended in an α-MEM medium at the concentration of 1×10^4 cells per mL.
The cell suspension thus obtained was placed into wells of a 24-well plate (500 μL each) and pre-incubated at 37° C. for 24 hours. F10A16S solutions at various concentrations (0-10 μM) were then added to the wells (500 μL each). The wells were irradiated with fluorescence light (27 watts) for 0-60 minutes. The distance between the plate cover and the light source was set at 5-6 cm. After irradiation, the cells were further incubated for 48 hours. […] The absorbance at 540 nm was correlated with the quantity of formazon, and thus with the quantity of dehydrogenase enzyme or the relative number of living cells (i.e., viability). […]

[3] = test system: Fibrosarcoma cells (CCRC 60037) and sarcoma 180 cells; assay: In vitro irradiation-induced cytotoxicity, MTT cell viability, tumor cells (cell type not specified for the result); assay type: cell-based
Description: as §1
The cell suspension thus obtained was placed into wells of a 24-well plate (500 μL each) and pre-incubated at 37° C. for 24 hours. F10A16S solutions at various concentrations (0-10 μM) were then added to the wells (500 μL each). The wells were irradiated with fluorescence light (27 watts) for 0-60 minutes. The distance between the plate cover and the light source was set at 5-6 cm. After irradiation, the cells were further incubated for 48 hours. A solution of 3-(4,5-dimethylthiazol-2-yl)-2,5-diphenyl-tetrazolium bromide (MTT, 100 μL, 0.5% in PBS, 100 μL each) was then added to each of the wells to react with mitochrondrial dehydrogenase in the living cells to produce formazon. Each cell suspension was again incubated at 37° C. for 3 hours. The suspension medium was then discarded. Formazon formed in cells from each well was then extracted with DMSO (1.0 mL each). The DMSO extract solution was immediately used for optical measurement. The absorbance at 540 nm was correlated with the quantity of formazon, and thus with the quantity of dehydrogenase enzyme or the relative number of living cells (i.e., viability). […] With an irradiation time of 60 minutes, a sharp loss of viable cells was observed when F10A16S concentration was increased from 2.5 to 5.0 μM. A maximal photodynamic cytotoxicity efficacy of >90% was obtained at an F10A16S concentration of 5.0-10.0 μM and an irradiaion time of 60 minutes.

[4] = test system: Murine sarcoma 180 cells subcutaneous tumors; assay: In vivo photodynamic therapy study in tumor-bearing mice; parameters: species or system male ICR mice; settings: 10 mg/kg intraperitoneal, 100 J/cm^2, day 30
Description: A photodynamic therapy study was conducted in male ICR mice (Charles River Japan origin Crl: CD-1® (ICR)BR). The mice were 8 weeks old, weighted 37±0.8 g, housed in polycarbonated shoe-box cages on hardwood bedding (5 mice/cage) under controlled conditions (temperature 22±1° C., relative humidity 55±15%, and light/dark cycle 12/12 hours), and allowed free access to a laboratory rodent diet (#5K55, Purina Mills, Inc., St. Louis, Mo.) and water.
Murine sarcoma 180 cells were maintained by transplantation to other mice in the abdominal cavity biweekly. Subcutaneous tumors were induced by […] injection of 1×10^7 tumor cells (about 0.1-0.15 ml ascitic fluid) to the subcutaneous region of abdominal cavities of the mice for this study, and were allowed to proliferate at the inoculation sites for 5-7 days until they reached a size with a diameter of 10±2 mm. […]
After the treatment, the mouse was examined every 5 days for 30 days. Efficacy of the irradiation therapy was evaluated by measuring the body weights and tumor volumes of the mouse. At day 30, the mice were euthanatized by carbon dioxide asphyxiation, and the weights of the body, liver, kidney, spleen, heart, and tumor, were measured. […]

solubility in water [1]	Substance	production of superoxide radicals upon irradiation (ferricytochrome C)	IC50 [2]	cell viability with irradiation ([3]; 0-10 μM, irradiation 0-60 minutes)	maximal photodynamic cytotoxicity efficacy ([3]; 5.0-10.0 μM, irradiation time 60 minutes)	cytotoxicity in the absence of light irradiation ([3]; no irradiation, highest concentration 10 μM)	tumor weight less than that of the tumor control group ([4]; laser irradiation at 514 nm)	tumor weight less than that of the tumor control group ([4]; laser irradiation at 633 nm)
water-soluble	sulfobutylated deca(tetraanilino)-pentakis(methano)-[60]fullerene decacarbamide [F10A4S]	increase systematically in a time-dependent manner						
water-soluble	sulfobutylated fullerene dodeca(hexadecaanilino)adduct [F12A16S]							
	deca(hexadecaanilino)adduct [F10A16S]		2900 nM	decrease in cell viability in both dose-dependent and irradiation time-dependent manners	> 90%	no cystoxicity was observed	roughly 60%	~99%
